Experiment [1] is described as follows: Luminescence Cell-Based Dose Confirmation HTS to Identify Activators of 5'UTR Stem-Loop Driven Alpha-Synuclein mRNA Translation in H4 Neuroglioblastoma Cells. [Related pubchem assays: 1829 (Project Summary), 1814 (Primary HTS)]. The experiment is classed as functional.
Experiment [2] is described as follows: Luminescence Cell-Based Dose Response HTS to Identify Activators of Luciferase Translation or Activity in H4 […] Cells. [Related pubchem assays: 1829 (Project Summary), 1814 (Primary HTS)]. The experiment is classed as functional.
Experiment [3] has as its system H4. Description: Luminescence Cell-Based Dose Response HTS to Identify Activators of 5'UTR Stem-Loop Driven Prion Protein mRNA Translation in H4 Neuroglioblastoma Cells. [Related pubchem assays: 1829 (Project Summary), 1814 (Primary HTS)]. The experiment is classed as functional. Conditions: Homo sapiens.
Experiment [4] is described as follows: NIH-3T3 fibroblast cytotoxicity, dose response, cytotoxicity control, cell-based, fluorescence, Alamar Blue, secondary assay (AID 2327).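 Note: NIH-3T3 mouse fibroblasts cultured with fluconazole at 8 µg/mL.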 The experiment is classed as functional.
Experiment [5] is described as follows: NIH3T3 cell viability loss – ATP luminescence, mouse fibroblasts, counter-screen, dose response (AID 2010).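 Note: cells exposed to compound for about 90 hours before reading.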 The experiment is classed as functional, cell-based. Background: Counterscreens check selectivity or assay interference.
Experiment [6] in a line: cells. The format is functional, cell-based.
The nature of experiment [7]: cells. The format is functional, cell-based. This is another data set of the same source.
Experiment [8] can be described thus: Trypanosoma cruzi growth suppression in host cells – NIH3T3 host cells, beta-gal luminescence, confirmation (AID 2044).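 Note: intracellular parasites grown in NIH/3T3 mouse fibroblasts as host cells; luminescent beta-galactosidase reporter signal from transgenic T. cruzi replicating inside host cells; inhibitors lower the luminescence signal.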 The format is functional, cell-based.
The test system of experiment [9] is INS1. Nature of the experiment: INS-1E survival protection against cytokine death – cell-based, luminescence, retest, dose response (AID 449756).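 Note: cell death triggered by IL-1 beta plus TNF-alpha plus IFN-gamma mixture; protective hits raise ATP signal compared with cytokine alone wells.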 The format is functional. Conditions: Rattus norvegicus.
Experiment [10] has as its target T1, DNA repair protein RAD52 homolog (Homo sapiens, UniProt P43351).
T1 sequence (P43351 whole entry): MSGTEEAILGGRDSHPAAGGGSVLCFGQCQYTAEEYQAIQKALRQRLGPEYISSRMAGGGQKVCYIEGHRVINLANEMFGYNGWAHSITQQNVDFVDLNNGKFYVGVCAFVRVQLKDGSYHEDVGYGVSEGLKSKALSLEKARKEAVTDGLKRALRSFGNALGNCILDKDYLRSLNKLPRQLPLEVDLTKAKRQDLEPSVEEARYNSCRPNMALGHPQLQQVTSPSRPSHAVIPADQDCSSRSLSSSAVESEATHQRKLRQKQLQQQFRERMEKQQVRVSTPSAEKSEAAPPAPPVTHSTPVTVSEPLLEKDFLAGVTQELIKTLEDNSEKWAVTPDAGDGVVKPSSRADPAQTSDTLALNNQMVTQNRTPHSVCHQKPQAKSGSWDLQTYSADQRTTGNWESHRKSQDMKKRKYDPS
The experiment is classed as functional, biochemical.

The nature of experiment [11]: HepG2 cell cytotoxicity, dose response, cytotoxicity control for non-replicating M. tuberculosis project (AID 489018). Conditions: Mycobacterium tuberculosis. The format is functional.
A short description of experiment [12]: cells. The experiment is classed as functional.
Experiment [13] in a line: THP-1 cell cytotoxicity, dose response, cytotoxicity control for non-replicating M. tuberculosis project (AID 489025). The format is functional.
Experiment [14] can be described thus: Vero E6 cell cytotoxicity, dose response, cytotoxicity control for non-replicating M. tuberculosis project, secondary assay (AID 492998). The experiment is classed as functional, VeroE6. Conditions: Vero C1008.
Experiment [15] deals with Streptococcus. Nature of the experiment: GAS UMAA2166 growth inhibition – luminescence, BacTiterGlo, counter-screen for streptokinase expression inhibitor project, dose response (AID 1915).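 Note: potency for reduction of bacterial viability or growth.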 The experiment is classed as functional, organism-based.
Experiment [16] concerns Streptococcus sp. 'group A'. Nature of the experiment: Streptococcus pyogenes SK(-)GAS viability under kanamycin – luminescence, BacTiterGlo, confirmation, counter-screen for streptokinase expression inhibitor project, dose response (AID 1900). The experiment is classed as functional, organism-based.
The target in experiment [17] is T2, Microphthalmia-associated transcription factor (Homo sapiens, UniProt O75030).
T2 sequence (O75030 whole entry): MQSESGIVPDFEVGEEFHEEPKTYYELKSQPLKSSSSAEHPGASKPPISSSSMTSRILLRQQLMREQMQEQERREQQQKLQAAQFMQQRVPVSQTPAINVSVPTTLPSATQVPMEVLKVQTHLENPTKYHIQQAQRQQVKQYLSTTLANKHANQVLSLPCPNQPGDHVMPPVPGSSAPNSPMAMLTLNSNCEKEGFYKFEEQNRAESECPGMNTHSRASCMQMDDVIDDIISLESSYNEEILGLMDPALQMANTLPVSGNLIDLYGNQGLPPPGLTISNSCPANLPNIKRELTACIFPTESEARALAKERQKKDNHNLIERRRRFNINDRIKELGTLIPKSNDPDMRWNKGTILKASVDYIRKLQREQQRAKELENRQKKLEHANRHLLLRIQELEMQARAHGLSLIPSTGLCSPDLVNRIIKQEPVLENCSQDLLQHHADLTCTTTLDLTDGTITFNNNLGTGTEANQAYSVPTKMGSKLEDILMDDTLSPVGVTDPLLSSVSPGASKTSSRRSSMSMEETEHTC
Nature of the experiment: reducers of TRPM1 reporter luminescence, concentration series – cell-based, SK-MEL-5, cherry-picked, set 3, MITF inhibitor project, dose response (AID 493073).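 Note: SK-MEL-5 melanoma cells with luciferase driven by the MITF target TRPM1 promoter.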 The experiment is classed as functional.

Experiment [18] deals with T3, Aminopeptidase N (Plasmodium falciparum FcB1/Columbia, UniProt O96935).
T3 sequence (O96935 whole entry): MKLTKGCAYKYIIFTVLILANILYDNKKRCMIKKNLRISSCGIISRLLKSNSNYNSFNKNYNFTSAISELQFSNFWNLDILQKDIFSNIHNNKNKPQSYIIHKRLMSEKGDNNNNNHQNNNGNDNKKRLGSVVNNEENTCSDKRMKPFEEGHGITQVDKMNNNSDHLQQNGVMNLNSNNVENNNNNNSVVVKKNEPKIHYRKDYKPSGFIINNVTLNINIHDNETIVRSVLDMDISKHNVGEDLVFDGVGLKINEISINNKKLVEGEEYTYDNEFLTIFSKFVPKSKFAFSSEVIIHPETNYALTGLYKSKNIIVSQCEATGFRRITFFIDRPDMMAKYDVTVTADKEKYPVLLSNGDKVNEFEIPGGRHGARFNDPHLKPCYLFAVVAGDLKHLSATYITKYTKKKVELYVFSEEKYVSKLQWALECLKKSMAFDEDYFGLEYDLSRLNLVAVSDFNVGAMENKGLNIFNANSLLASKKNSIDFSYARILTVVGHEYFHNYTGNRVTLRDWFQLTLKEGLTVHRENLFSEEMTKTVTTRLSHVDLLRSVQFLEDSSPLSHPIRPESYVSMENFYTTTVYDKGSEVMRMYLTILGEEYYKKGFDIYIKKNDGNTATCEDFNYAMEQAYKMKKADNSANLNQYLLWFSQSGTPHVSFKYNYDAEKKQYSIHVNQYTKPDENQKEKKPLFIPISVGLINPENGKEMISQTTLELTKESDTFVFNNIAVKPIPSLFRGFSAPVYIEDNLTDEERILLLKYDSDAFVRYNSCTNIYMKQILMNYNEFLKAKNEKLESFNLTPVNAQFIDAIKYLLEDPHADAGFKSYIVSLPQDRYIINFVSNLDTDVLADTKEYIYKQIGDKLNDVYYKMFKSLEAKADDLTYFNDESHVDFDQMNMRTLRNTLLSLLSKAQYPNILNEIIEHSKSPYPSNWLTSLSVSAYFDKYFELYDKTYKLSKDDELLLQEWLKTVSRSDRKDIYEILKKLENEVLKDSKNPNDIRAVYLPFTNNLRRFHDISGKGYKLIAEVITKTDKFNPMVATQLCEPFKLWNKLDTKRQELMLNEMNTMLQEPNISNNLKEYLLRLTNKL
Description: malaria alanyl aminopeptidase activity blockers – biochemical, fluorogenic H-Leu-NHMec substrate, 1536-well (AID 1445). On the set-up: species or system Plasmodium falciparum 3D7, 3D7.

Experiment [19] in a line: fluconazole-exposed Candida albicans growth modulators – fluorescence, retest, confirmation (AID 2467). The format is functional, cell-based.
Experiment [20] has as its target Genome polyprotein (dengue virus type 2, UniProt P29990). Nature of the experiment: flavivirus cap methylation enzyme inhibition – biochemical, confirmation dose response, primary screen (AID 588689). The format is functional.
Experiment [21] has as its system Vero. Description: viability of Vero cells under compound – cytotoxicity control for flavivirus capping enzyme inhibitors (AID 588742). The format is functional. Conditions: Chlorocebus sabaeus.
The target in experiment [22] is Eukaryotic translation initiation factor 4E (Mus musculus, UniProt P63073). Description: blockers of eIF4G binding by eIF4E – biochemical, TR-FRET, dose response (AID 855).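 Note: potency for disrupting eIF4E binding to eIF4GI seen as loss of FRET.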 The experiment is classed as functional. (In general: TR-FRET usually uses a lanthanide donor and a delayed reading to cut background.)
Experiment [23] addresses Glucose-6-phosphate 1-dehydrogenase (Homo sapiens, UniProt P11413). Description: inhibition of Homo sapiens G6PD, dose series – biochemical, fluorescence, selectivity assay for P. falciparum G6PD inhibitor project, dose response (AID 504792). The format is functional.
Experiment [24] addresses Glyceraldehyde-3-phosphate dehydrogenase (Homo sapiens, UniProt P04406).
The target of experiment [25] is Cytochrome P450 3A4 (Homo sapiens, UniProt P08684).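 Note: CYP3A4 tested as one member of a cytochrome P450 panel screen.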
The target in experiment [26] is T4, Cytochrome P450 1A2 (Homo sapiens, UniProt P05177).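 Note: PubChem cytochrome P450 panel assay, CYP1A2 panel member.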
T4 sequence (P05177 whole entry): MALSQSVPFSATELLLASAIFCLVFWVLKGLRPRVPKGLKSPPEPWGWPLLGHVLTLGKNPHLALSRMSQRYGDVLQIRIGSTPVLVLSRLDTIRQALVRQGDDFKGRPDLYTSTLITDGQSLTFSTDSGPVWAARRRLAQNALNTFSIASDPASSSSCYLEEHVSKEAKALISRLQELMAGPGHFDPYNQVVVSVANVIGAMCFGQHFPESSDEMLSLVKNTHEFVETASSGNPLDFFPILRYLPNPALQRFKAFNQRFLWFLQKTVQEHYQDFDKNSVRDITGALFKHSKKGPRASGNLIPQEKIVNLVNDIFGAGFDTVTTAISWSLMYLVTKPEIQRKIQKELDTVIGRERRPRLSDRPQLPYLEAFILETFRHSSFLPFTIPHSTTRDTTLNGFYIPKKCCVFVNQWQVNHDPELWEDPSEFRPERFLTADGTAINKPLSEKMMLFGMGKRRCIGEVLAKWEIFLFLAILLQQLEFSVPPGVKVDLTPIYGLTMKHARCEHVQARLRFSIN

The structures appear in SMILES notation. The source made the active and inactive calls.

Sequence of Glyceraldehyde-3-phosphate dehydrogenase (P04406 whole entry): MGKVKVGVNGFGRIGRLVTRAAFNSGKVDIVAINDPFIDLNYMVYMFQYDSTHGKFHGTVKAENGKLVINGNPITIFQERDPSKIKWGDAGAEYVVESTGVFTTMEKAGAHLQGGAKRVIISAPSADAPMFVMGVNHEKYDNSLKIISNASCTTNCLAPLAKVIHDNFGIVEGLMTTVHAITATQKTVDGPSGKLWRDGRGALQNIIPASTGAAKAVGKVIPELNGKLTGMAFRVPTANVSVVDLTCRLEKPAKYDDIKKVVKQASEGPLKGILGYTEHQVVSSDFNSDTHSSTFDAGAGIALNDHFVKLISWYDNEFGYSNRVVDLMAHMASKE
Sequence of Genome polyprotein (P29990 2492-3391 limits assumed): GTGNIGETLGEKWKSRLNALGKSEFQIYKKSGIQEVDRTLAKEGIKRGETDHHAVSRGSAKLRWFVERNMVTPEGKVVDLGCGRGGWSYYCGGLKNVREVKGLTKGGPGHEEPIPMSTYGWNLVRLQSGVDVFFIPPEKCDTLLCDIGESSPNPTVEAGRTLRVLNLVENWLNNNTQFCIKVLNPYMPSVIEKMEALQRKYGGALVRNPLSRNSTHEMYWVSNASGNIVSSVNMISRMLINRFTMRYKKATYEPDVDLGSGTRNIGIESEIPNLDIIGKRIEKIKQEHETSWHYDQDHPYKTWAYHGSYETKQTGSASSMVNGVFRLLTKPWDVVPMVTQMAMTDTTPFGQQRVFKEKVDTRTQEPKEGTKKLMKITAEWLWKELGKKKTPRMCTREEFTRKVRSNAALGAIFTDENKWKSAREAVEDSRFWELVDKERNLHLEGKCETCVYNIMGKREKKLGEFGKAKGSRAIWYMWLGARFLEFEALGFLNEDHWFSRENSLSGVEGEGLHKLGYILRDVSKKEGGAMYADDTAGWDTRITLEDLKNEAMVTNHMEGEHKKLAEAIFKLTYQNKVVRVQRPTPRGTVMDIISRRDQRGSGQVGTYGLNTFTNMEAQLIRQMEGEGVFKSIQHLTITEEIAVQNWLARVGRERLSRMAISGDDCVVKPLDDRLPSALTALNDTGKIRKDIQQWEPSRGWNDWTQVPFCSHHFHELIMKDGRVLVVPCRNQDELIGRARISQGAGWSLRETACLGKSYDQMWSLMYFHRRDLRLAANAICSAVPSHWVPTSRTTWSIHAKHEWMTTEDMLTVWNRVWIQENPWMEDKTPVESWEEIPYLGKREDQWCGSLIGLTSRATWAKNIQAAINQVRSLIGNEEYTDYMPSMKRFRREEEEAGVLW
Sequence of Glucose-6-phosphate 1-dehydrogenase (P11413 whole entry): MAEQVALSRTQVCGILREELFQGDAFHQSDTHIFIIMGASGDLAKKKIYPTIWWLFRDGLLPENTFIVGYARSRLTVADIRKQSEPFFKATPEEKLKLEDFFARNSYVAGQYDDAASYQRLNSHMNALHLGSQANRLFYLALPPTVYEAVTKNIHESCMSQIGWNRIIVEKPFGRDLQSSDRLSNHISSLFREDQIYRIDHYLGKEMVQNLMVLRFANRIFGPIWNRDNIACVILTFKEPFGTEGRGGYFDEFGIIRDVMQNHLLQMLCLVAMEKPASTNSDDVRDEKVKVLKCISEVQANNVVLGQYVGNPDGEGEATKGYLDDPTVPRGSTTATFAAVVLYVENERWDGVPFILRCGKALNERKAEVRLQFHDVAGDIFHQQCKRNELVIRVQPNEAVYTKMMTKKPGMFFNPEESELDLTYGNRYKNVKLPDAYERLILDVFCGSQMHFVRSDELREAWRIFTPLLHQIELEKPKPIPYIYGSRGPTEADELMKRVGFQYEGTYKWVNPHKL
Sequence of Eukaryotic translation initiation factor 4E (P63073 whole entry): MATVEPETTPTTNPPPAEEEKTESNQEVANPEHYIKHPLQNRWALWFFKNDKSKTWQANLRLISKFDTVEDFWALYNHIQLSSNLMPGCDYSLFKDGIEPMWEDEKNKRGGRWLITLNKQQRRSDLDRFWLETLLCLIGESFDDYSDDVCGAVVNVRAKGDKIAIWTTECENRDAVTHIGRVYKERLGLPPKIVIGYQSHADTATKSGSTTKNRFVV
Sequence of Cytochrome P450 3A4 (P08684 whole entry): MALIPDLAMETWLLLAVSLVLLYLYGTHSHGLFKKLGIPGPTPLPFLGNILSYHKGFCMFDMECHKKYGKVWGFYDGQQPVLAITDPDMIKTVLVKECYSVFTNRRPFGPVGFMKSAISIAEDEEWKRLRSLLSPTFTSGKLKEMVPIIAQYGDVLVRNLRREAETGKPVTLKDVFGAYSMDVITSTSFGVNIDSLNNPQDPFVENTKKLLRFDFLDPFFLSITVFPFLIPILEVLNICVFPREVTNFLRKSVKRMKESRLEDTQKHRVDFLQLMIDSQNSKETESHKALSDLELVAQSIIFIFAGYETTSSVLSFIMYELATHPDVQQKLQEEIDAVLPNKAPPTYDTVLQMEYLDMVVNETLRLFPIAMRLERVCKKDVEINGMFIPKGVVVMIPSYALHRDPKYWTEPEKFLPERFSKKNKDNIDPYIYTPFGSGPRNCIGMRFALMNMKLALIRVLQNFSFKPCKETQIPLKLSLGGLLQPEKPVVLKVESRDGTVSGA

Consider `C/C(=N\NC(=O)c1nc2ccccn2c1C)c1ccco1`, for which the concentration giving a half-maximal response (EC50) (commonly the concentration at which the effect is half-maximal) in experiment [1] was 14.4 µM (active); in [2], > 120 µM (not active); in experiment [3] it was 15.7 µM (active).

On to `O=C(CSc1nnc2ccc3ccccc3n12)N1CCOCC1`, for which the values for the EC50 in experiment [1], in experiment [2] and in experiment [3] were > 120 µM (not active), 14.6 µM (active) and 14.4 µM (inconclusive), respectively.

On to `Cn1c(N=NO)nc2ccccc21`, for which the EC50 in experiment [4] was > 150 µM (inactive); in experiment [5], < 6 µM (inconclusive); in [6] it was > 350 µM (not active); in experiment [7], 11.3 µM (active); in [8], 0.778 µM (active). In experiment [9], the AC50 (as a rule, the concentration giving half of the maximal activity seen) was 0.932 µM (active).

As for `CN(C)CC/C=C1\c2ccccc2Sc2cc(F)c(Cl)cc21`, the AC50 in [10] was 15.1 µM (active). The half-maximal cytotoxic concentration (CC50) (as a rule, the concentration giving 50% cytotoxicity) in [11] is > 20 µM (active); in experiment [13], 17 µM (active); in experiment [14], > 20 µM (active). In experiment [12], the IC50 (as a rule, the concentration that gives 50% inhibition) was 20.8 µM (active).

For `Cc1nc(C)c(C(=O)N/N=C/c2cc(Br)ccc2O)s1`, the EC50 in [4] was > 150 µM (inactive); in [15], 8.73 µM (active); in experiment [6], > 350 µM (not active); in experiment [7], 99.3 µM (active); in experiment [16] it was 2.35 µM (active); in experiment [19] it was 1.34 µM (active). Moreover, the values for the AC50 in [17] and in experiment [9] were 3.66 µM (active) and 2.63 µM (active), respectively. In experiment [18], the IC50 was 12.9 µM (active).

`COc1cc(CNc2ccc(N3CCCC3)cc2)ccc1OCc1ccccc1F`: the concentration for half-maximal inhibition (IC50) in [20] was 54.2 µM (active); in [22], > 64 µM (inactive); in experiment [23] it was > 80 µM (inactive). The CC50 in [21] was > 40 µM (active).

For the compound `CCc1nccn1CCC(=O)N1CCCC(N2CCN(c3cccc(Cl)c3)CC2)C1` (stereo not given), the EC50 in [1] was > 120 µM (not active); in experiment [2] it was 25.5 µM (active); in experiment [3], 16.3 µM (active).

On to `O=C1C(Cl)=C(N2CCN(Cc3ccccc3)CC2)C(=O)N1c1ccc(C(F)(F)F)cc1`, for which, in experiment [24], the concentration for half-maximal inhibition (IC50) was > 50 µM (inconclusive).

On to `Cc1ccc(Oc2ncc(CN3CCOCC3)s2)cc1`, for which the half-maximal activity concentration (AC50) was 20 µM (inconclusive) in experiment [25] and 22.4 µM (inconclusive) in [26]. The figures for the EC50 in experiment [1], in experiment [2] and in [3] were 13.1 µM (active), 13.1 µM (active) and 40.4 µM (active), respectively.

For `Cc1cc(C(=O)Nc2ccc(O)c(C(=O)O)c2)c(C)o1`, the IC50 in [24] is recorded as > 100 µM (not active).
